Results from the NIST ThermoML archive (doi:10.1021/acs.jced.5b00682).
± gives the expanded uncertainty stated by the source.

Legend:
[1] = 101.33 kPa, Liquid, Alternating current cell with electrodes
[2] = xn = mol fraction of the nth substance listed; details: 101 kPa, Liquid, Frequency=0.001 MHz, Alternating current cell with electrodes

## O=[N+]([O-])[O-].[Na+] [sodium nitrate]
[1]; 583 K
  electrical conductivity: 98.7 ± 2 S/m
[1]; 593 K
  electrical conductivity: 103 ± 2.1 S/m
[1]; 603 K
  electrical conductivity: 108 ± 2.2 S/m
[1]; 613 K
  electrical conductivity: 112 ± 2.2 S/m
[1]; 623 K
  electrical conductivity: 116 ± 2.3 S/m
[1]; 633 K
  electrical conductivity: 121 ± 2.4 S/m
[1]; 643 K
  electrical conductivity: 125 ± 2.5 S/m

## O=[N+]([O-])[O-].[K+] [potassium nitrate]
[1]; 618.5 K
  electrical conductivity: 64.7 ± 1.3 S/m
[1]; 623.5 K
  electrical conductivity: 66.2 ± 1.3 S/m
[1]; 624.6 K
  electrical conductivity: 66.5 ± 1.3 S/m
[1]; 626.5 K
  electrical conductivity: 67.1 ± 1.3 S/m
[1]; 627.9 K
  electrical conductivity: 67.5 ± 1.4 S/m
[1]; 628.4 K
  electrical conductivity: 67.7 ± 1.4 S/m
[1]; 628.5 K
  electrical conductivity: 67.7 ± 1.4 S/m
[1]; 630.5 K
  electrical conductivity: 68.3 ± 1.4 S/m
[1]; 631.5 K
  electrical conductivity: 68.5 ± 1.4 S/m
[1]; 633.5 K
  electrical conductivity: 69.1 ± 1.4 S/m
[1]; 633.6 K
  electrical conductivity: 69.1 ± 1.4 S/m
[1]; 633.8 K
  electrical conductivity: 69.2 ± 1.4 S/m
[1]; 636.7 K
  electrical conductivity: 70.1 ± 1.4 S/m
[1]; 638.5 K
  electrical conductivity: 70.6 ± 1.4 S/m
[1]; 648.5 K
  electrical conductivity: 73.4 ± 1.5 S/m
[1]; 649.6 K
  electrical conductivity: 73.7 ± 1.5 S/m
[1]; 653.5 K
  electrical conductivity: 74.9 ± 1.5 S/m
[1]; 658.5 K
  electrical conductivity: 76.3 ± 1.5 S/m
[1]; 659.6 K
  electrical conductivity: 76.6 ± 1.5 S/m
[1]; 663.5 K
  electrical conductivity: 77.7 ± 1.6 S/m
[1]; 665 K
  electrical conductivity: 78.2 ± 1.6 S/m

## [Cl-].[Cs+] [cesium chloride] + [Cl-].[Li+]
[2]; 593.5 K, x1 = 0.42
  electrical conductivity: 33.3 ± 0.7 S/m
[2]; 598.5 K, x1 = 0.42
  electrical conductivity: 35.5 ± 1.2 S/m
[2]; 603 K, x1 = 0.425
  electrical conductivity: 33.3 ± 0.7 S/m
[2]; 603.5 K, x1 = 0.42
  electrical conductivity: 37.9 ± 1.2 S/m
[2]; 608 K, x1 = 0.425
  electrical conductivity: 35.5 ± 1.1 S/m
[2]; 610.5 K, x1 = 0.42
  electrical conductivity: 41.1 ± 1.2 S/m
[2]; 613 K, x1 = 0.425
  electrical conductivity: 37.5 ± 1.1 S/m
[2]; 613.5 K, x1 = 0.42
  electrical conductivity: 42.4 ± 1.3 S/m
[2]; 618 K, x1 = 0.425
  electrical conductivity: 39.8 ± 1.2 S/m
[2]; 623 K, x1 = 0.425
  electrical conductivity: 42 ± 1.2 S/m
[2]; 623.5 K, x1 = 0.42
  electrical conductivity: 47.1 ± 1.3 S/m
[2]; 628 K, x1 = 0.425
  electrical conductivity: 44.2 ± 1.3 S/m
[2]; 628.5 K, x1 = 0.42
  electrical conductivity: 49.5 ± 1.4 S/m
[2]; 629 K, x1 = 0.42
  electrical conductivity: 52.4 ± 1.5 S/m
[2]; 633 K, x1 = 0.425
  electrical conductivity: 46.5 ± 1.3 S/m
[2]; 633.5 K, x1 = 0.42
  electrical conductivity: 52 ± 1.5 S/m
[2]; 638 K, x1 = 0.42
  electrical conductivity: 57.1 ± 1.5 S/m
[2]; 638 K, x1 = 0.425
  electrical conductivity: 48.8 ± 1.4 S/m
[2]; 643 K, x1 = 0.425
  electrical conductivity: 51.2 ± 1.4 S/m
[2]; 643.5 K, x1 = 0.42
  electrical conductivity: 57 ± 1.4 S/m
[2]; 648 K, x1 = 0.425
  electrical conductivity: 53.4 ± 1.4 S/m
[2]; 650 K, x1 = 0.42
  electrical conductivity: 62.1 ± 1.6 S/m
[2]; 650.5 K, x1 = 0.42
  electrical conductivity: 60.5 ± 1.6 S/m
[2]; 653 K, x1 = 0.425
  electrical conductivity: 55.9 ± 1.5 S/m
[2]; 653.5 K, x1 = 0.42
  electrical conductivity: 62 ± 2.1 S/m
[2]; 658 K, x1 = 0.42
  electrical conductivity: 66.5 ± 1.7 S/m
[2]; 658 K, x1 = 0.425
  electrical conductivity: 58.2 ± 1.5 S/m
[2]; 663 K, x1 = 0.425
  electrical conductivity: 60.6 ± 1.5 S/m
[2]; 663.5 K, x1 = 0.42
  electrical conductivity: 67.1 ± 1.6 S/m
[2]; 668 K, x1 = 0.425
  electrical conductivity: 63 ± 1.6 S/m
[2]; 670 K, x1 = 0.42
  electrical conductivity: 72.1 ± 1.8 S/m
[2]; 670.5 K, x1 = 0.42
  electrical conductivity: 70.6 ± 1.7 S/m
[2]; 673 K, x1 = 0.425
  electrical conductivity: 65.4 ± 1.6 S/m
[2]; 673.5 K, x1 = 0.42
  electrical conductivity: 72.1 ± 2.2 S/m
[2]; 678 K, x1 = 0.42
  electrical conductivity: 76.6 ± 1.8 S/m
[2]; 678 K, x1 = 0.425
  electrical conductivity: 67.8 ± 1.7 S/m
[2]; 683 K, x1 = 0.425
  electrical conductivity: 70.1 ± 1.7 S/m
[2]; 683.5 K, x1 = 0.42
  electrical conductivity: 77.2 ± 1.8 S/m
[2]; 688 K, x1 = 0.425
  electrical conductivity: 72.5 ± 1.7 S/m
[2]; 690 K, x1 = 0.42
  electrical conductivity: 82.2 ± 2 S/m
[2]; 690.5 K, x1 = 0.42
  electrical conductivity: 80.6 ± 1.9 S/m
[2]; 693 K, x1 = 0.425
  electrical conductivity: 74.9 ± 1.8 S/m
[2]; 693.5 K, x1 = 0.42
  electrical conductivity: 82.2 ± 2.4 S/m
[2]; 698 K, x1 = 0.42
  electrical conductivity: 86.9 ± 2 S/m
[2]; 698 K, x1 = 0.425
  electrical conductivity: 77.1 ± 1.8 S/m
[2]; 703 K, x1 = 0.425
  electrical conductivity: 79.6 ± 1.8 S/m
[2]; 703.5 K, x1 = 0.42
  electrical conductivity: 87 ± 1.9 S/m
[2]; 708 K, x1 = 0.425
  electrical conductivity: 81.7 ± 1.9 S/m
[2]; 710 K, x1 = 0.42
  electrical conductivity: 91.8 ± 2.3 S/m
[2]; 710.5 K, x1 = 0.42
  electrical conductivity: 90.2 ± 2.3 S/m
[2]; 713 K, x1 = 0.425
  electrical conductivity: 84 ± 1.9 S/m
[2]; 718 K, x1 = 0.42
  electrical conductivity: 97.1 ± 1.9 S/m
[2]; 718 K, x1 = 0.425
  electrical conductivity: 86.3 ± 1.9 S/m
[2]; 723 K, x1 = 0.425
  electrical conductivity: 88.4 ± 1.8 S/m
